Reference: ChEMBL document CHEMBL1201862, “PubChem BioAssay data set” (2004)
Calls of active or inactive are those of the source.

Legend:
[1] = viability of uninfected HEp-2 cells – cell-based, HTS, cytotoxicity control for RSV inhibitor project, dose response (AID 2410); format: functional; details: human respiratory syncytial virus
[2] = test system: H9c2; test: cells; format: functional, cell-based; details: Rattus norvegicus, H9c2, Myocardium;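 also: confirmatory concentration-response retest of ultra-high-throughput screening hits for modulation of myocardial damage; cell death induced by hydrogen peroxide oxidative stress; compound pretreatment for 60 min then peroxide exposure for 2 h; potency is for protecting the cells against peroxide damage rather than for killing them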
[3] = cells
[4] = NIH3T3 cell viability loss – ATP luminescence, mouse fibroblasts, counter-screen, dose response (AID 2010); format: functional, cell-based;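 also: cells exposed to compound for about 90 hours before reading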
[5] = cells; remark: listed apart in the source
[6] = Trypanosoma cruzi growth suppression in host cells – NIH3T3 host cells, beta-gal luminescence, confirmation (AID 2044); format: functional, cell-based;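 also: intracellular parasites grown in NIH/3T3 mouse fibroblasts as host cells; luminescent beta-galactosidase reporter signal from transgenic T. cruzi replicating inside host cells; inhibitors lower the luminescence signal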
[7] = biological target: Cytochrome P450 2C19 (Homo sapiens, UniProt P33261); test: Cytochrome panel assay with activity outcomes. Panel member name: p450-cyp2c19 Compounds with AC50 equal or less than 10 uM are considered active; format: functional; details: read-out: AC50
Cytochrome P450 2C19, sequence (P33261 whole entry): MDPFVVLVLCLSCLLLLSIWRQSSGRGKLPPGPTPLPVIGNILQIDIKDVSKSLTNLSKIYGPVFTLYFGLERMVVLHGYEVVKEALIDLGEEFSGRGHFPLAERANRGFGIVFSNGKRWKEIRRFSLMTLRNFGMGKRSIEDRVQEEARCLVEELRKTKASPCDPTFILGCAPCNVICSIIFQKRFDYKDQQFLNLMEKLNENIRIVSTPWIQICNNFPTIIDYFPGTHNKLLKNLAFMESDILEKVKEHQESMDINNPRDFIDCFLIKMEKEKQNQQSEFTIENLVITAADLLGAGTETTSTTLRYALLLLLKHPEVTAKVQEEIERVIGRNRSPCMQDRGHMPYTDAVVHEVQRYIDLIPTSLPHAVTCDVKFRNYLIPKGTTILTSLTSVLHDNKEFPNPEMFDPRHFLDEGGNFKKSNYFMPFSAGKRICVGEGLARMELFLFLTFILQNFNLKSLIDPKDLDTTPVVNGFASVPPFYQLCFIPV

[8] = biological target: Cytochrome P450 3A4 (Homo sapiens, UniProt P08684);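 also: CYP3A4 tested as one member of a cytochrome P450 panel screen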
Cytochrome P450 3A4, sequence (P08684 whole entry): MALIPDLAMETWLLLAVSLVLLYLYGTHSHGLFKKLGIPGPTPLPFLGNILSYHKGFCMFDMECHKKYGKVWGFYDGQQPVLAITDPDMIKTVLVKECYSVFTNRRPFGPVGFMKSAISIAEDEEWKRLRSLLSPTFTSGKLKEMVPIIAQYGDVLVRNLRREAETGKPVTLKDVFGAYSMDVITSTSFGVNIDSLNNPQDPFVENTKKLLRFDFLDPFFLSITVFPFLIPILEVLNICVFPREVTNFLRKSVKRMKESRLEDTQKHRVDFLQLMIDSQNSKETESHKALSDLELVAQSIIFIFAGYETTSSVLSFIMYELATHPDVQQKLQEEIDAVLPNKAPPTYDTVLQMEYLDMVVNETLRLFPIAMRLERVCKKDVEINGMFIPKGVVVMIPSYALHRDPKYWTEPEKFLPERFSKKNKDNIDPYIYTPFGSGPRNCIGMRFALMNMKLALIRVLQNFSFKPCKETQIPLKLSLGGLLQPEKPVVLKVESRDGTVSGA

[9] = test system: Vero; test: mammalian cell viability reduction – secondary assay, cytotoxicity control for West Nile virus antiviral project, dose response (AID 1650); format: functional; details: Chlorocebus sabaeus
[10] = HEK-293T cell viability reduction – luminescence, B-cell screen hits, cytotoxicity control for BCR NF-kB inhibitor project, dose response (AID 489021); format: functional, cell-based;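 also: HEK-293T cells carrying an NF-kB luciferase reporter; cells exposed to compound for about 14 hours before viability readout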
[11] = alpha-synuclein stem-loop translation blockers – luminescence, H4 neuroglioblastoma cells, dose confirmation, confirmation (AID 2454); format: functional, cell-based;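 also: H4 neuroglioblastoma cells carrying an alpha-synuclein 5'UTR luciferase reporter; potency for inhibition of the luciferase signal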
[12] = Luminescence Cell-Based Dose Response HTS to Identify Inhibitors of 5'UTR Stem-Loop Driven Prion Protein mRNA Translation in H4 Neuroglioblastoma Cells. [Related pubchem assays: 1827 (Project Summary), 1813 (Primary HTS)]; format: functional
[13] = cells; format: functional, cell-based
[14] = alpha-synuclein stem-loop luciferase translation blockers – H4 neuroglioma cells, luminescence, confirmation (AID 1988); format: functional, cell-based
[15] = luciferase reporter signal reduction – luminescence, H4-C neuroglioblastoma cells, dose response (AID 2458); format: functional, cell-based;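 also: H4 neuroglioblastoma cells stably carrying a luciferase reporter gene fusion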
[16] = luciferase reporter signal suppression in cells – H4 neuroglioma cells, luminescence, dose response (AID 1990); format: functional, cell-based
[17] = biological target: Genome polyprotein (Hepatitis C virus, UniProt Q2Q167); test: disruption of hepatitis C core self-association – biochemical, TR-FRET, dose response (AID 2159); set-up: species or system Hepacivirus hominis;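 also: blocks dimerization of HCV core protein measured by TR-FRET between tagged core106 pairs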
Genome polyprotein, sequence (Q2Q167 whole entry, the tested form may be a part): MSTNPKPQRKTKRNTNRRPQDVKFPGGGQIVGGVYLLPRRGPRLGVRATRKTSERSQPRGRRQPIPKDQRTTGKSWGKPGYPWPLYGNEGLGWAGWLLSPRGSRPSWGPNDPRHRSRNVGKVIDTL

[18] = biological target: T1, Carboxy-terminal domain RNA polymerase II polypeptide A small phosphatase 1 (Homo sapiens, UniProt Q9GZU7); test: CTDSP1 inhibitors, concentration-response, biochemical, absorbance readout, ultra-high-throughput screen actives (AID 540297); format: functional
T1 sequence (Q9GZU7 whole entry): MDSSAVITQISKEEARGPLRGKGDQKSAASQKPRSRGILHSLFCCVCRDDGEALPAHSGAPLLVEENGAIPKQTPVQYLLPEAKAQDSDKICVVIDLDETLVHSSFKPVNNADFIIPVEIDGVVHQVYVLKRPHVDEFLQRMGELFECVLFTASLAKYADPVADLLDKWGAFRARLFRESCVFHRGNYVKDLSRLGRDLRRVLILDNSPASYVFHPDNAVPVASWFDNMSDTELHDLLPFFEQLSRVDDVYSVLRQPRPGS

[19] = biological target: Induced myeloid leukemia cell differentiation protein Mcl-1 (Homo sapiens, UniProt Q07820); format: functional
Induced myeloid leukemia cell differentiation protein Mcl-1, sequence (Q07820 whole entry): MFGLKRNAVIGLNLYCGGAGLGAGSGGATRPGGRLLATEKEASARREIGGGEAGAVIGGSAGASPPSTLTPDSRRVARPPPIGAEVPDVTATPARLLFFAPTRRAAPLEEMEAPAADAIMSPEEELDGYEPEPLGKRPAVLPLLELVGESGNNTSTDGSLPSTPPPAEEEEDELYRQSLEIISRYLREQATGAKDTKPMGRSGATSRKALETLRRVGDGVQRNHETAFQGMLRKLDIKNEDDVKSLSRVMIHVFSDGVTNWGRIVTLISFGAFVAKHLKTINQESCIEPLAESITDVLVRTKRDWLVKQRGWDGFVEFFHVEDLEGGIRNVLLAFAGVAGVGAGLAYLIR

[20] = test system: INS1; test: INS-1E survival protection against cytokine death – cell-based, luminescence, retest, dose response (AID 449756); format: functional; details: Rattus norvegicus;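 also: cell death triggered by IL-1 beta plus TNF-alpha plus IFN-gamma mixture; protective hits raise ATP signal compared with cytokine alone wells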
[21] = biological target: T2, Alkaline phosphatase, tissue-nonspecific isozyme (Homo sapiens, UniProt P05186); test: activation of tissue-nonspecific alkaline phosphatase – biochemical, TNAP isozyme, human IAP uHTS hits, selectivity assay for human IAP activator project, dose response (AID 488886); format: functional;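 also: potency of compounds raising TNAP activity as a selectivity check on IAP activators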
T2 sequence (P05186 whole entry): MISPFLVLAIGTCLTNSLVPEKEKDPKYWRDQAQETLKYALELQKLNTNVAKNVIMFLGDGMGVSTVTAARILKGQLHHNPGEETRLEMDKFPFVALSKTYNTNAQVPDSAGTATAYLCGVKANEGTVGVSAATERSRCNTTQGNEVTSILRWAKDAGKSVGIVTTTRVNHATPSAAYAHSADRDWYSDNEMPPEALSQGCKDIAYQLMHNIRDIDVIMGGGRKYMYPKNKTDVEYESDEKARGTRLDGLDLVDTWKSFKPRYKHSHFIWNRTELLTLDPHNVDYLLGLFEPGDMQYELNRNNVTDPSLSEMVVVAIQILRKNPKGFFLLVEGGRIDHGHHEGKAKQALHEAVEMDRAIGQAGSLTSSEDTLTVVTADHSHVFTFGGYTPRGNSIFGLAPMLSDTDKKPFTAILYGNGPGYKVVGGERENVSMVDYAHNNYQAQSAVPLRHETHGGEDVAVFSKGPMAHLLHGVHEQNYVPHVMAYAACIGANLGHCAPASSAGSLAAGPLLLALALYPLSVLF

[22] = biological target: T3, Intestinal-type alkaline phosphatase (Homo sapiens, UniProt P09923); test: activation of human intestinal alkaline phosphatase – biochemical, luminescent, uHTS hits, set 2, dose response (AID 488817); format: functional;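 also: potency of activators that raise enzyme activity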
T3 sequence (P09923 whole entry): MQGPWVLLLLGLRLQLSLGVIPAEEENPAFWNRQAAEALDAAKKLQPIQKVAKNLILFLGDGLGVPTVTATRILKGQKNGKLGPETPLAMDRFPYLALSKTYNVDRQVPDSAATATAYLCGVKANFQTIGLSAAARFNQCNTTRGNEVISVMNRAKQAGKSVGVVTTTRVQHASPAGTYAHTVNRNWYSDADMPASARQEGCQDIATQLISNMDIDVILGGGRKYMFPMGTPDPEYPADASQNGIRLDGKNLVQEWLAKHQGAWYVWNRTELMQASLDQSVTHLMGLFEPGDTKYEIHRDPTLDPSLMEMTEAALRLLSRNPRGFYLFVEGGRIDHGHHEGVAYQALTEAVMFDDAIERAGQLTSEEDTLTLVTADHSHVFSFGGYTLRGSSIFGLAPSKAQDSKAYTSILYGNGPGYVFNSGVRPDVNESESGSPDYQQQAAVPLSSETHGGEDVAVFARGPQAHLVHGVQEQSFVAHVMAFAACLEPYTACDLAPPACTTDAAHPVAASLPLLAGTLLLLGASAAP

[23] = cells; format: functional, cell-based; remark: listed apart in the source
[24] = biological target: Intestinal-type alkaline phosphatase (Mus musculus, UniProt P24822); test: PubChem AID 488874; format: functional
Intestinal-type alkaline phosphatase (Mus musculus, UniProt P24822), sequence (P24822 whole entry): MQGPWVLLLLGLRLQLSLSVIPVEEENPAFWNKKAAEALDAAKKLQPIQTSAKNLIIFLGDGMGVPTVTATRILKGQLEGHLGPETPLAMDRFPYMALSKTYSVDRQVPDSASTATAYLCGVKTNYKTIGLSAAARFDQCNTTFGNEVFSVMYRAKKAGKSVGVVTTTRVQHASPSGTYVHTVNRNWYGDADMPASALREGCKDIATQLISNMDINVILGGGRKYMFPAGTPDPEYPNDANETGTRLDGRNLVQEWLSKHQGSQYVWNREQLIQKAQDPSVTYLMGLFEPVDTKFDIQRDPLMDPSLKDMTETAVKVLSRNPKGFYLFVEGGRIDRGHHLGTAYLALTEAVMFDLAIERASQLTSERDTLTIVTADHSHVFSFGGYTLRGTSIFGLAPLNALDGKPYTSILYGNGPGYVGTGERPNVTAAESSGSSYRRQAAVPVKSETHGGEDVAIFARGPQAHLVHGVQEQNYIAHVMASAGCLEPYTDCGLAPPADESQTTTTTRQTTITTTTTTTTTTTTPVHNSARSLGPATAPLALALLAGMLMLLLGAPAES

[25] = biological target: T4, Mannose-6-phosphate isomerase (Homo sapiens, UniProt P34949); test: MPI enzyme activity inhibition – biochemical, fluorescence intensity, coupled assay, primary screen (AID 1209)
T4 sequence (P34949 whole entry): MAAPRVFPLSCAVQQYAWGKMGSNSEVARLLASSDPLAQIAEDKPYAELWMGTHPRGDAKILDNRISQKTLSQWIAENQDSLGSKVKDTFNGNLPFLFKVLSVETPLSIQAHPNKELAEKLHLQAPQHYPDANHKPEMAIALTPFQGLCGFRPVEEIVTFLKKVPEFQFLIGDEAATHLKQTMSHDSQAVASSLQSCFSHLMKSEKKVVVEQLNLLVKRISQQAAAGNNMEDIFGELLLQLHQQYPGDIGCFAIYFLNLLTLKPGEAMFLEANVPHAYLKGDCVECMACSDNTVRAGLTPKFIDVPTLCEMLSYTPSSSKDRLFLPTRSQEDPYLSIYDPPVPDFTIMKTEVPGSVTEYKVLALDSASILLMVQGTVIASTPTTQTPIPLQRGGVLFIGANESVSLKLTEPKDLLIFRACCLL

[26] = biological target: T3, Intestinal-type alkaline phosphatase; test: human intestinal alkaline phosphatase activators, dose response, biochemical, luminescence, uHTS hits (AID 463120); format: functional
[27] = cells; format: functional, cell-based; remark: listed apart in the source
[28] = biological target: T4, Mannose-6-phosphate isomerase; test: MPI inhibition at elevated mannose 6-phosphate – biochemical, fluorescence intensity, high mannose 6-phosphate, primary screen (AID 1220)
[29] = biological target: T5, Rac GTPase-activating protein 1 (Homo sapiens, UniProt Q9H0H5); test: blockers of MgcRacGAP-driven Rac1 GTP hydrolysis – biochemical, ADP Hunter fluorescence, primary and confirmatory, confirmation (AID 624330); format: functional
T5 sequence (Q9H0H5 whole entry): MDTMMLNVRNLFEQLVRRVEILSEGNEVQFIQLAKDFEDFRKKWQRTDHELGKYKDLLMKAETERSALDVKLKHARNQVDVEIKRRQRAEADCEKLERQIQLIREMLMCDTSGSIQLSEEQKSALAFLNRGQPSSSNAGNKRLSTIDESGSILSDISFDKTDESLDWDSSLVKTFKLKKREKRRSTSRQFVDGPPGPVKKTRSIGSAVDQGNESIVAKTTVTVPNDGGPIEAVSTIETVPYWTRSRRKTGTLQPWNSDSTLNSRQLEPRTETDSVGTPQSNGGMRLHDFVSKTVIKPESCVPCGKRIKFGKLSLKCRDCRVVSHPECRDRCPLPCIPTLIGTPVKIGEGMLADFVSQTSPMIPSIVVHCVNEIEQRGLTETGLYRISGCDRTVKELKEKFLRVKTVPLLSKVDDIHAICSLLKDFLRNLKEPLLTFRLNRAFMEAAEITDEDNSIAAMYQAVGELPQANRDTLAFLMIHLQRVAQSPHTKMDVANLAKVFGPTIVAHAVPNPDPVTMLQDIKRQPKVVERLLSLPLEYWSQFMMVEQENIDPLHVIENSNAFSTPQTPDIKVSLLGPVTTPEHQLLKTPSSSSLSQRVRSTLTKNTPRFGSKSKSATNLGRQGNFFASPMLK

[30] = biological target: FAD-linked sulfhydryl oxidase ALR (Homo sapiens, UniProt P55789); test: ALR-catalysed DTT oxidation blockers – biochemical, H2O2 detection, luminescence, cherry-pick, dose response (AID 493248)
FAD-linked sulfhydryl oxidase ALR, sequence (P55789 whole entry): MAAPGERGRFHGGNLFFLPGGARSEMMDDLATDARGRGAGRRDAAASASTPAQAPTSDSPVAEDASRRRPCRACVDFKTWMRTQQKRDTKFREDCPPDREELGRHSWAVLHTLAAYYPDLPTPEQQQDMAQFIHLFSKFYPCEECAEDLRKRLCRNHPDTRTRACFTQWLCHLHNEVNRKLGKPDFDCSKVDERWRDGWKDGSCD

With COc1ccccc1NC(=O)COc1cccc2c1CCNC2=O the CC50 [1] was 39.1 µM (active), the IC50 [2] was 8.7 µM (active) and the IC50 [3] was 28.8 µM (active).

In the case of CN(C)CCCCCN(C)Cc1cc2ccccc2o1, the EC50 [4] is reported as 16.4 µM (active), the EC50 [5] is reported as 0.025 µM (active) and the EC50 [6] is reported as < 0.1 µM (active).

In the case of Cc1ccc(-c2cc(C(F)F)n3ncc(C(=O)Nc4c(C)nn(Cc5c(Cl)cccc5Cl)c4C)c3n2)cc1, the AC50 [7] is reported as 7.94 µM (inconclusive), the AC50 [8] is reported as “inconclusive” and the CC50 [9] is reported as > 100 µM (active).

For CCOc1ccc(-c2cc(CCCC(=O)NCc3ccco3)no2)cc1, the IC50 [10] was > 80 µM (inactive), the EC50 [11] was 1.87 µM (active) and the EC50 [12] was 17.4 µM (active). The EC50 [13] was 2.78 µM (active), the EC50 [14] was < 0.1 µM (active) and the EC50 [15] was 1.22 µM (active). The EC50 [16] was 14.5 µM (active).

With Cc1cc(C)n2c(SC/C(O)=C(\C#N)c3nc4ccccc4[nH]3)nnc2n1 the IC50 [17] was > 49.8 µM (not active), the IC50 [18] was 5.01 µM (active) and the IC50 [19] was 1.15 µM (active).

For CCC(C)[C@H](NC(=O)OC(C)(C)C)C(=O)N/N=C/c1ccc2cc(OC)ccc2n1 (stereo partly drawn), the CC50 [1] was 36.2 µM (active) and the IC50 [3] was 39 µM (active).

For Cc1cc(C(=O)N/N=C2\CC(=O)c3ccccc32)c(C)n1-c1ccc(F)cc1, the IC50 [17] was > 49.8 µM (not active).

For CCn1c(C)nc2cc(C(=O)N/N=C/c3cccc(O)c3O)ccc21, the AC50 [20] was 2.79 µM (active), the EC50 [21] was 11 µM (active) and the EC50 [22] was 9.71 µM (active). For the same compound, the EC50 [23] was > 350 µM (not active), the IC50 [24] was 44 µM (active) and the IC50 [25] was > 50 µM (not active). The EC50 [26] was 6.34 µM (active), the EC50 [27] was 10.9 µM (active) and the IC50 [28] was > 50 µM (not active). The IC50 [29] was 119 µM (active) and the AC50 [30] was 3.82 µM (active).
